Data taken from patent US7871996B2, “Methods of inhibiting nitric oxide synthase using corrin derivatives” (The United States of America as represented by the …, priority 2006, dated 2011).
Counter-ions that a name gives are not always drawn.

Tests used:
[1] = target: T1, NOS2 (iNOS) (Homo sapiens, UniProt P35228); assay: NOS2 enzymatic activity: conversion of 14-C-L-arginine to L-citrulline; assay type: biochemical
T1 construct: made in house
Protocol: (§1) The enzymatic activity of purified NOS1, NOS2, or NOS3 to convert radiolabeled L-arginine to L-citrulline was assessed in presence or absence of different concentrations of (A) hydroxocobalamin, (B) cobinamide, (C) dicyanocobinamide, or (D) cyanocobalamin. Results are expressed as percent inhibition.
(§2) The effect of methylcobalamin (not exposed to light or exposed to light) on nNOS is shown in FIG. 3A; its effect on iNOS is shown in FIG. 3B. The effect of adenosylcobalamin (not exposed to light or exposed to light) on nNOS is shown in FIG. 3C; its effect on iNOS is shown in FIG. 3D. The agents were protected from light or exposed to light for 60 minutes. The enzyme assays were done in near-dark conditions (as low light as possible). Light removes the methyl- or adenosyl-group from the agent resulting in hydroxocobalamin.
(§3) Briefly, cells were treated with 500 units/ml of murine interferon-gamma for 24 hours, incubated with 10 uM DAF-FM for 30 minutes, and washed. Then the cells were then assessed for fluorescence in a platereader fluorimeter. The degree of NO formation is proportional to the degree of fluorescence of DfAF-FM. To determine NOS activity, we incubated 14-C-labeled-L-arginine was at 37° C. with 5 nM recombinant NOS1, NOS2 or NOS3 with HEPES buffer, dithiothreitol, tetrahydrobiopterin, FAD, and NADPH in the absence or presence of different concentrations of the compound in question for 60 minutes (27, 28). The reaction was stopped by adding excess L-citrulline, after which 14-C-labeled L-arginine was separated from 14-C-labeled citrulline using a Dowex-50 column (with the 14-C-labeled L-arginine being bound to the Dowex-50, and 14-C-labeled citrulline eluting free from the column). Radioactivity was determined with a scintillation counter, and percentage NOS inhibition was calculated. We determined that none of the compounds quenched detection of the radioactivity. Spectroscopy was determined using a Hitachi U2010 spectrometer (San Jose, Calif.) as noted before (17, 24, 25).

[2] = target: T2, NOS1 (nNOS) (Homo sapiens, UniProt P29475); assay: NOS1 enzymatic activity: conversion of 14-C-L-arginine to L-citrulline; assay type: biochemical
T2 construct: made in house
Protocol: as §1, §2, §3

[3] = target: T3, purified, recombinant NOS2 (Homo sapiens, UniProt P35228); assay: UV/Vis spectroscopy of CO binding to reduced NOS2 heme; details: reduced conditions (dithionite), CO as oxygen mimic
T3 construct: made in house
T3 sequence (P35228 whole entry): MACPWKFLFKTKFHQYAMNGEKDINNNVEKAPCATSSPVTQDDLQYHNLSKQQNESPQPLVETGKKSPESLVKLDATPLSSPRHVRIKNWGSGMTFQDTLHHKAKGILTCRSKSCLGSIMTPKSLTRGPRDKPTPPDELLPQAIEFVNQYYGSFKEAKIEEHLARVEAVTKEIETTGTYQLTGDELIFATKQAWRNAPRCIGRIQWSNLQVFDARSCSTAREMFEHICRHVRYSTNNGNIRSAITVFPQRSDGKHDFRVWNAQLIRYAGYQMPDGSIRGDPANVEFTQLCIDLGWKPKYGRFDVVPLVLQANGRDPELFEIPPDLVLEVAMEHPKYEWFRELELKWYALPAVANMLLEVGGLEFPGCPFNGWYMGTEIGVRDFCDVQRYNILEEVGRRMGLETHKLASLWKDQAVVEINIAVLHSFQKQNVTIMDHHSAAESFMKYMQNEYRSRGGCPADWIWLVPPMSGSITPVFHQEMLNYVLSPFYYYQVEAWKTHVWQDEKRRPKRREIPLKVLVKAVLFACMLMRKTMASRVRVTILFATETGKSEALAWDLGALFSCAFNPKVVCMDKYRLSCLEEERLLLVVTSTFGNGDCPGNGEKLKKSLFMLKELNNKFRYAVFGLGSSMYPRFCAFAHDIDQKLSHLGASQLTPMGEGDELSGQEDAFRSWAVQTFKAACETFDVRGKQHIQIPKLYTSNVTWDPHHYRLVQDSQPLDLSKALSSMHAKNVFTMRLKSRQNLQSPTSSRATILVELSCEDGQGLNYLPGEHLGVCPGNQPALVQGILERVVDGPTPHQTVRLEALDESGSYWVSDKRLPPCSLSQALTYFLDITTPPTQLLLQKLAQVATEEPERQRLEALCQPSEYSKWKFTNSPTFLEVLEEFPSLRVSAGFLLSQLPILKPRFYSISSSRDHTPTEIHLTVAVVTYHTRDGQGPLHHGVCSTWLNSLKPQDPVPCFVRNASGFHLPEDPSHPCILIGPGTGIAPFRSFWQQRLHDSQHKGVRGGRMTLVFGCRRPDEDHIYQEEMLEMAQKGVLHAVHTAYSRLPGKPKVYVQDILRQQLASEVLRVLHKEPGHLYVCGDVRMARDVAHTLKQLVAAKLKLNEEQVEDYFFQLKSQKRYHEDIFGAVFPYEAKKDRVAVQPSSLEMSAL
Excerpt: Oxygen reacts directly with the reduced iron of the heme group in NOS. Carbon monoxide (CO) (that simulates O2 in binding to the reduced iron) was used to determine the influence of CN2-Cbi on oxygen binding to NOS. The reaction of purified NOS2 with CO in a reduced state (dithionite) markedly changed the UV/Vis spectrum, with appearance of the typical CO-bound Fe^+2-heme peak at 445 nm (FIG. 4A). However, in the presence of CN2-Cbi, there was no appearance of the 445 nm peak induced by CO in a reduced state (FIG. 4B).
Briefly, cells were treated with 500 units/ml of murine interferon-gamma for 24 hours, incubated with 10 uM DAF-FM for 30 minutes, and washed. Then the cells were then assessed for fluorescence in a platereader fluorimeter. The degree of NO formation is proportional to the degree of fluorescence of DfAF-FM. […] Radioactivity was determined with a scintillation counter, and percentage NOS inhibition was calculated. We determined that none of the compounds quenched detection of the radioactivity. Spectroscopy was determined using a Hitachi U2010 spectrometer (San Jose, Calif.) as noted before (17, 24, 25). […]

[4] = UV/Vis spectroscopy of reaction of agent with NO; assay type: binding
Protocol: NO reacts with OH-Cbl as indicated by the change in the UV/Vis spectrum (shift of peak from 352 nm to 354-355 nm, and alteration in the 520 nm region).
as §3, with “25). […]” for “25).”

[5] = test system: J774 cells; assay: NO formation by activated J774 mouse macrophage cells; assay type: cell-based; details: interferon-gamma and endotoxin, 3 days, 0 to 62.5 uM
Protocol: (§4) Cells of the mouse macrophage cell line J774 were incubated 3 days with 10 ng/ml endotoxin and 100 units/ml murine interferon gamma to activate the macrophage-like cells for NO production. The cultures also contained 0 to 62.5 uM dicyanocobinamide for the 3 days. At the end of the culture period, supernatant cell NO production was determined. […] Cells of the mouse macrophage cell line Raw 264 were incubated 24 hours with 100 units/ml murine interferon gamma to activate the macrophage-like cells for NO production. The cultures also contained 0, 0.5, 2.0, or 8.0 uM dicyanocobinamide for the entire culture period. At the end of the culture period the cells were assessed for NO production using DAF-MN and a fluorimeter. Results are expressed as percent inhibition. The error bars show the SEM.
We prepared highly purified, recombinant NOS1 and NOS2 (24,25). Recombinant bovine NOS3 was purchased from Cayman (Ann Arbor, Mich.). Tetrahydrobiopterin and carboxy-PTIO {2-(4-Carboxyphenyl)-4,4,5,5-tetramethylimidazoline-1-oxyl-3-oxide (potassium salt)} were from Alexis (San Diego, Calif.). 14-C-labeled L-arginine and 14-C-labeled citrulline were from Amersham/GE Healthcare (Waukesha, Wis.). […] NO levels were measured using a “Nitric Oxide Analyzer” (Sievers, Boulder, Colo.) or using diaminofluorescein-FM (4-amino-5-methylamino-2′,7′-difluorofluorescein) from Invitrogen-Molecular Probes.

[6] = test system: Raw 264 cells; assay: NO formation by activated Raw 264 mouse macrophage cells (DAF-FM fluorescence); assay type: cell-based; details: interferon-gamma, 24 hours, 0, 0.5, 2.0, or 8.0 uM
Protocol: as §4
We prepared highly purified, recombinant NOS1 and NOS2 (24,25). […] NO levels were measured using a “Nitric Oxide Analyzer” (Sievers, Boulder, Colo.) or using diaminofluorescein-FM (4-amino-5-methylamino-2′,7′-difluorofluorescein) from Invitrogen-Molecular Probes.
Briefly, cells were treated with 500 units/ml of murine interferon-gamma for 24 hours, incubated with 10 uM DAF-FM for 30 minutes, and washed. Then the cells were then assessed for fluorescence in a platereader fluorimeter. The degree of NO formation is proportional to the degree of fluorescence of DfAF-FM. […]

[7] = stated as known; cited from earlier work
[8] = after light illumination of the agent

C/C1=C2/[N-][C@H]([C@H](CC(N)=O)[C@@]2(C)CCC(=O)NC[C@@H](C)OP(=O)([O-])O[C@H]2[C@@H](O)[C@@H](n3cnc4cc(C)c(C)cc43)O[C@@H]2CO)[C@]2(C)N=C(/C(C)=C3N=C(/C=C4N=C1[C@@H](CCC(N)=O)C\4(C)C)[C@@H](CCC(N)=O)[C@]\3(C)CC(N)=O)[C@@H](CCC(N)=O)[C@]2(C)CC(N)=O.[CH2-][C@H]1O[C@@H](n2cnc3c(N)ncnc32)[C@H](O)[C@@H]1O.[Co] [Adenosylcobalamin]
NOS2 inhibition (in words) [1, 8]: inhibitory activity (comparable to native OH-Cbl)
NOS2 inhibition (in words) ([1]; agent not exposed to light): very little ability to inhibit NOS activity
NOS1 inhibition (in words) [2, 8]: inhibitory activity (comparable to native OH-Cbl)
NOS1 inhibition (in words) ([2]; agent not exposed to light): very little ability to inhibit NOS activity

C/C1=C2/[N-]C([C@H](CC(N)=O)[C@@]2(C)CCC(=O)NCC(C)O)[C@]2(C)N=C(/C(C)=C3N=C(/C=C4N=C1[C@@H](CCC(N)=O)C\4(C)C)[C@@H](CCC(N)=O)[C@]\3(C)CC(N)=O)[C@@H](CCC(N)=O)[C@]2(C)CC(N)=O.[C-]#N.[C-]#N.[Co] (stereo partly drawn) [Dicyanocobinamide]
CO-induced spectral changes in NOS2 (445 nm peak) [3]: markedly diminished
reaction with NO (change in UV/visible spectrum) [4]: did not react
NOS2 inhibition (in words) ([1]; purified recombinant NOS2): potent
NOS1 inhibition (in words) ([2]; purified recombinant NOS1): potent
inhibition of NO production [5]: dose-dependent inhibition
inhibition of NO production [6]: dose-dependent inhibition

CC1(C)N([O])C(c2ccc(C(=O)O)cc2)=[N+]([O-])C1(C)C [Carboxy-PTIO, 2-(4-Carboxyphenyl)-4,4,5,5-tetramethylimidazoline-1-oxyl-3-oxide (potassium salt)]
NOS2 inhibition (in words) ([1]; purified recombinant NOS2): does not inhibit NOS
EC50 ([1]; purified recombinant NOS2, 5 nM, 60 minutes, 37° C., read-out: ED50 NOS2): 1.36 mM
NOS1 inhibition (in words) ([2]; purified recombinant NOS1): does not inhibit NOS
EC50 ([2]; purified recombinant NOS1, 5 nM, 60 minutes, 37° C., read-out: ED50 NOS1): 1.36 mM

C/C1=C2/[N-][C@H]([C@H](CC(N)=O)[C@@]2(C)CCC(=O)NC[C@H](C)OP(=O)([O-])O[C@H]2[C@@H](O)[C@@H](n3cnc4cc(C)c(C)cc43)O[C@@H]2CO)[C@]2(C)N=C(/C(C)=C3N=C(/C=C4N=C1[C@@H](CCC(N)=O)C\4(C)C)[C@@H](CCC(N)=O)[C@]\3(C)CC(N)=O)[C@@H](CCC(N)=O)[C@]2(C)CC(N)=O.[CH3-].[Co+3] [Methylcobalamin]
NOS2 inhibition (in words) [1, 8]: inhibitory activity (comparable to native OH-Cbl)
NOS2 inhibition (in words) ([1]; agent not exposed to light): very little ability to inhibit NOS activity
NOS1 inhibition (in words) [2, 8]: inhibitory activity (comparable to native OH-Cbl)
NOS1 inhibition (in words) ([2]; agent not exposed to light): very little ability to inhibit NOS activity

Cyanocobalamin
NOS2 inhibition (in words) ([1]; purified recombinant NOS2): much less activity
NOS1 inhibition (in words) ([2]; purified recombinant NOS1): much less activity

C/C1=C2/[N-][C@H]([C@H](CC(N)=O)[C@@]2(C)CCC(=O)NC[C@@H](C)O)[C@]2(C)N=C(/C(C)=C3N=C(/C=C4N=C1[C@@H](CCC(N)=O)C\4(C)C)[C@@H](CCC(N)=O)[C@]\3(C)CC(N)=O)[C@@H](CCC(N)=O)[C@]2(C)CC(N)=O.[Co+3] [Cobinamide]
NOS2 inhibition (in words) ([1]; purified recombinant NOS2): potent
NOS1 inhibition (in words) ([2]; purified recombinant NOS1): potent
ability to bind and scavenge NO [7]: able to bind and scavenge NO

C/C1=C2/[N-][C@H]([C@H](CC(N)=O)[C@@]2(C)CCC(=O)NC[C@@H](C)OP(=O)([O-])O[C@H]2[C@@H](O)[C@@H](n3cnc4cc(C)c(C)cc43)O[C@@H]2CO)[C@]2(C)N=C(/C(C)=C3N=C(/C=C4N=C1[C@@H](CCC(N)=O)C\4(C)C)[C@@H](CCC(N)=O)[C@]\3(C)CC(N)=O)[C@@H](CCC(N)=O)[C@]2(C)CC(N)=O.[Co+3].[OH-] [Hydroxocobalamin]
reaction with NO (change in UV/visible spectrum) [4]: reacted
NOS2 inhibition (in words) ([1]; purified recombinant NOS2): potent
NOS1 inhibition (in words) ([2]; purified recombinant NOS1): potent
ability to bind and scavenge NO [7]: able to bind and scavenge NO
